“And” between values parts separate entries of the source, which are not always exact repeats. Equal entries are not always repeated.
Species on record: Rattus norvegicus
Assay: Open TG-GATES - Regimen: Single
Format: toxicity, organism-based, Sprague-Dawley
Parameters: regimen Single, gender Male, age 6 weeks
Settings: in vivo, po, 0 mg/kg, route gavage, dose level Control; for APTT / Bas / Eos / Fbg / Hb / Ht / Lym / MCH / MCHC / MCV / Mono / Neu / PT / Plat / RBC / Ret / WBC: tissue Blood; for KIDNEY_L / KIDNEY_R / KIDNEY_TOTAL: tissue Kidney; for LIVER: tissue Liver; for A/G / ALP / ALT / AST / BUN / CRE / Ca / Cl / GLC / IP / K / LDH / Na / PL / RALB / TBIL / TC / TG / TP / gamma-GTP / DBIL: tissue Plasma

SMILES: COc1ccc2c(c1)c(CC(=O)O)c(C)n2C(=O)c1ccc(Cl)cc1 [INDOMETHACIN]
- TERMINAL_BW (3 h): 201 g and 226.5 g
- APTT (3 h): 16.8 s and 19.8 s
- Bas (3 h): 0% and 0.2%
- Eos (3 h): 0.6% and 1%
- Fbg (3 h): 201.6 mg/dL and 227.8 mg/dL
- Hb (3 h): 13.6 g/dL and 13.9 g/dL
- Ht (3 h): 40.8% and 38.7%
- Lym (3 h): 80% and 80.4%
- MCH (3 h): 21.9 pg and 22.5 pg
- MCHC (3 h): 33.2% and 35.9%
- MCV (3 h): 66 fL and 62.6 fL
- Mono (3 h): 10.2% and 2.4%
- Neu (3 h): 9.6% and 15%
- PT (3 h): 12.8 s and 11.9 s
- Plat (3 h): 109 x10_4/uL and 118.1 x10_4/uL
- RBC (3 h): 618.8 x10_4/ul
- Ret (3 h): 10.2% and 7.9%
- WBC (3 h): 108.5 x10_2/uL and 100.3 x10_2/uL
- KIDNEY_L (3 h): 0.9 g and 1 g
- KIDNEY_R (3 h): 0.9 g and 1 g
- KIDNEY_TOTAL (3 h): 1.8 g and 2 g
- LIVER (3 h): 9.4 g and 10 g
- A/G (3 h): 1.6 and 1.8
- ALP (3 h): 1191.4 IU/L and 1059 IU/L
- ALT (3 h): 39 IU/L and 32.2 IU/L
- AST (3 h): 69.6 IU/L and 71.8 IU/L
- BUN (3 h): 12.2 mg/dL and 11.8 mg/dL
- CRE (3 h): 0.5 mg/dL and 0.4 mg/dL
- Ca (3 h): 10.6 mg/dL and 10.7 mg/dL
- Cl (3 h): 105.6 meq/L and 103 meq/L
- GLC (3 h): 194.4 mg/dL and 209.4 mg/dL
- IP (3 h): 10 mg/dL and 9.2 mg/dL
- K (3 h): 5.1 meq/L and 4.1 meq/L
- LDH (3 h): 104.8 IU/L and 217.4 IU/L
- Na (3 h): 137.8 meq/L and 141 meq/L
- PL (3 h): 129.4 mg/dL and 135 mg/dL
- RALB (3 h): 3.8 g/dL and 3.4 g/dL
- TBIL (3 h): 0.3 mg/dL and 0.1 mg/dL
- TC (3 h): 74.8 mg/dL and 73.8 mg/dL
- TG (3 h): 56.2 mg/dL and 67.4 mg/dL
- TP (3 h): 6.1 g/dL and 5.4 g/dL
- gamma-GTP (3 h): 1.2 IU/L
- TERMINAL_BW (6 h): 197.2 g and 224 g
- APTT (6 h): 17.5 s and 19.1 s
- Bas (6 h): 0%
- Eos (6 h): 0.8%
- Fbg (6 h): 209.2 mg/dL and 225.2 mg/dL
- Hb (6 h): 13.6 g/dL and 13.8 g/dL
- Ht (6 h): 41% and 38.1%
- Lym (6 h): 78.2% and 80%
- MCH (6 h): 21.9 pg and 22.3 pg
- MCHC (6 h): 33.1% and 36.4%
- MCV (6 h): 66.2 fL and 61.3 fL
- Mono (6 h): 6.8% and 2.8%
- Neu (6 h): 14.2% and 15%
- PT (6 h): 12.7 s and 12.2 s
- Plat (6 h): 104.7 x10_4/uL and 120.1 x10_4/uL
- RBC (6 h): 619.4 x10_4/ul and 621.8 x10_4/ul
- Ret (6 h): 9.3% and 7.9%
- WBC (6 h): 111.4 x10_2/uL and 85.5 x10_2/uL
- KIDNEY_L (6 h): 0.9 g
- KIDNEY_R (6 h): 0.9 g
- KIDNEY_TOTAL (6 h): 1.8 g and 1.9 g
- LIVER (6 h): 8.4 g and 9.5 g
- A/G (6 h): 1.7 and 1.6
- ALP (6 h): 1101.4 IU/L and 861.4 IU/L
- ALT (6 h): 34.2 IU/L and 31.6 IU/L
- AST (6 h): 68.4 IU/L and 67.8 IU/L
- BUN (6 h): 11.6 mg/dL and 9.6 mg/dL
- CRE (6 h): 0.5 mg/dL and 0.4 mg/dL
- Ca (6 h): 10.1 mg/dL and 10.8 mg/dL
- Cl (6 h): 106 meq/L and 102.8 meq/L
- DBIL (6 h): 0.032 mg/dL and 0.078 mg/dL
- GLC (6 h): 193.2 mg/dL and 193.8 mg/dL
- IP (6 h): 9.8 mg/dL and 9.4 mg/dL
- K (6 h): 4.8 meq/L and 4.1 meq/L
- LDH (6 h): 77.2 IU/L and 197.4 IU/L
- Na (6 h): 137.2 meq/L and 140.6 meq/L
- PL (6 h): 119.2 mg/dL and 136.4 mg/dL
- RALB (6 h): 3.8 g/dL and 3.4 g/dL
- TBIL (6 h): 0.3 mg/dL and 0.1 mg/dL
- TC (6 h): 69.2 mg/dL and 73.4 mg/dL
- TG (6 h): 39 mg/dL and 70.6 mg/dL
- TP (6 h): 6 g/dL and 5.5 g/dL
- gamma-GTP (6 h): 1.8 IU/L and 1 IU/L
- TERMINAL_BW (9 h): 196.5 g and 222.5 g
- APTT (9 h): 16.7 s and 17.7 s
- Bas (9 h): 0%
- Eos (9 h): 0.4% and 1%
- Fbg (9 h): 211.2 mg/dL and 229.6 mg/dL
- Hb (9 h): 13.2 g/dL and 13.5 g/dL
- Ht (9 h): 40% and 36.8%
- Lym (9 h): 82.8% and 78.6%
- MCH (9 h): 21.7 pg and 22.4 pg
- MCHC (9 h): 33.1% and 36.7%
- MCV (9 h): 65.6 fL and 61.1 fL
- Mono (9 h): 6.4% and 2.8%
- Neu (9 h): 10.2% and 16.6%
- PT (9 h): 12.5 s
- Plat (9 h): 100.8 x10_4/uL and 126.3 x10_4/uL
- RBC (9 h): 610 x10_4/ul and 603.4 x10_4/ul
- Ret (9 h): 10.2% and 8.2%
- WBC (9 h): 121.1 x10_2/uL and 84 x10_2/uL
- KIDNEY_L (9 h): 0.9 g and 1 g
- KIDNEY_R (9 h): 0.9 g and 1 g
- KIDNEY_TOTAL (9 h): 1.9 g
- LIVER (9 h): 8.1 g and 8.7 g
- A/G (9 h): 2.5 and 1.7
- ALP (9 h): 901.4 IU/L and 851.8 IU/L
- ALT (9 h): 33.8 IU/L and 28.6 IU/L
- AST (9 h): 68.8 IU/L and 64.8 IU/L
- BUN (9 h): 12.4 mg/dL and 9.6 mg/dL
- CRE (9 h): 0.5 mg/dL and 0.4 mg/dL
- Ca (9 h): 10.2 mg/dL and 10.5 mg/dL
- Cl (9 h): 107 meq/L and 104.2 meq/L
- DBIL (9 h): 0.042 mg/dL and 0.072 mg/dL
- GLC (9 h): 191 mg/dL and 209 mg/dL
- IP (9 h): 10.3 mg/dL
- K (9 h): 5.1 meq/L and 3.8 meq/L
- LDH (9 h): 98.8 IU/L and 189 IU/L
- Na (9 h): 138 meq/L and 142.4 meq/L
- PL (9 h): 137.6 mg/dL and 129.2 mg/dL
- RALB (9 h): 3.9 g/dL and 3.5 g/dL
- TC (9 h): 81 mg/dL and 72.4 mg/dL
- TG (9 h): 43.4 mg/dL and 45.8 mg/dL
- TP (9 h): 5.4 g/dL and 5.6 g/dL
- gamma-GTP (9 h): 2 IU/L and 1 IU/L
- TERMINAL_BW (24 h): 215.4 g and 240.9 g
- APTT (24 h): 16.7 s and 18.2 s
- Bas (24 h): 0% and 0.8%
- Eos (24 h): 1% and 0.6%
- Fbg (24 h): 218.4 mg/dL and 222.8 mg/dL
- Hb (24 h): 13.5 g/dL and 13.2 g/dL
- Ht (24 h): 41.1% and 38.2%
- Lym (24 h): 79% and 79.8%
- MCH (24 h): 21.6 pg and 21.5 pg
- MCHC (24 h): 33% and 34.4%
- MCV (24 h): 65.5 fL and 62.4 fL
- Mono (24 h): 10.4% and 2.6%
- Neu (24 h): 9.4% and 15.6%
- PT (24 h): 12.1 s and 11.5 s
- Plat (24 h): 95.4 x10_4/uL and 128.4 x10_4/uL
- RBC (24 h): 627.4 x10_4/ul and 612.4 x10_4/ul
- Ret (24 h): 9.1% and 6.5%
- WBC (24 h): 106.5 x10_2/uL and 112.4 x10_2/uL
- KIDNEY_L (24 h): 1 g
- KIDNEY_R (24 h): 1 g
- KIDNEY_TOTAL (24 h): 2 g
